Reference: US10793542B2, “Hetroarylamine compounds for modulating the hedgehog pathway and preparing method and uses thereof” (DEVELOPMENT CENTER FOR BIOTECHNOLOGY, priority 2016, dated 2020)

Tests used:
Assay type in all cases: cell-based
[1] = tested on: hedgehog pathway (pGL3-7xGli-Luciferase reporter in C3H10T1/2 cells); assay: Transient transfection of C3H10T1/2 and Gli-Luc reporter assay with SAG stimulation; conditions: Mus musculus, C3H 10T1/2, SAG 20 nM, 48 hr, read-out: Inhibition of Gli-Luc expression [IC50
Method in brief: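 C3H10T1/2 cells were transiently transfected with a 7xGli-firefly luciferase reporter and a TK-Renilla control, then treated with serially diluted compounds plus 20 nM SAG in 0.5% FBS for 48 h at 37 °C. Firefly signal was normalized to Renilla and scaled between DMSO with SAG (100%) and without SAG (0%). IC50 was obtained by nonlinear regression.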

[2] = biological target: T1, Smo wild type (Homo sapiens, UniProt Q99835); assay: Reporter assay of C3H10T1/2-Gli-Luc cells transfected with wild-type Smo, without SAG; conditions: C3H10T1/2 cells transfected with pLPCX-SMO, no SAG, 48 hr; read-out: Inhibition of C3H10T1/2-Gli-Luc-Smo-WT [IC50
T1 construct: expressed in transfected cells; host or cells: C3H10T1/2 cells (ATCC CCL-226), transient transfection with pLPCX-SMO
T1 sequence (Q99835 28-787): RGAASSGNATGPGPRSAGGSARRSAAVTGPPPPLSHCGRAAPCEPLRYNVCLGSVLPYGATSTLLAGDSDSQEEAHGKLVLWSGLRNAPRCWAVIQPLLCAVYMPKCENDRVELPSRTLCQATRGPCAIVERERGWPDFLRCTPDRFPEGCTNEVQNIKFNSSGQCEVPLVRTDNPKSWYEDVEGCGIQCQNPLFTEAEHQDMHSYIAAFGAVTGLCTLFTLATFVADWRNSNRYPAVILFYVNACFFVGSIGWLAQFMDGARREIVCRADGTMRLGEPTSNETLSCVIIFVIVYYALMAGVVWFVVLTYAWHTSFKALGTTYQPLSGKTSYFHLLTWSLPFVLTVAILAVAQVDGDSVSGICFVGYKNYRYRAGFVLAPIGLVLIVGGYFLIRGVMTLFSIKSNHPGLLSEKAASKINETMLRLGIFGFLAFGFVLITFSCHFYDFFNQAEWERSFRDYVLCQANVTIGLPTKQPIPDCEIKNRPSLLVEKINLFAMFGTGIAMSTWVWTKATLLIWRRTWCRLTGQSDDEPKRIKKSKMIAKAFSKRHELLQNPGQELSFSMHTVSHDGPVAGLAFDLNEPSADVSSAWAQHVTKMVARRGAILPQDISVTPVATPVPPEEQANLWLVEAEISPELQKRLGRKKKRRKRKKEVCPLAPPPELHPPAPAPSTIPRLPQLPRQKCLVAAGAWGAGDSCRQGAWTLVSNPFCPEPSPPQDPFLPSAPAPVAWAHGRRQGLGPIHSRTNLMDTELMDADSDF
Method in brief: (§1)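 C3H10T1/2-Gli-Luc cells transiently transfected with wild-type or D473H SMO, replated in 0.5% FBS RPMI and incubated with compounds 48 h at 37 °C without SAG. Dual-luciferase, firefly normalized to Renilla; scaled to DMSO (100%) and 10 μM ALLO-2 (0%); IC50 by nonlinear regression.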

[3] = biological target: T2, Smo D473H mutant (Homo sapiens, UniProt Q99835, D473H); assay: Reporter assay of C3H10T1/2-Gli-Luc cells transfected with Smo D473H mutant, without SAG; conditions: C3H10T1/2 cells transfected with pLPCX-SMO-D473H, no SAG, 48 hr; read-out: Inhibition of C3H10T1/2-Gli-Luc-Smo-D473H [IC50
T2 construct: expressed in transfected cells; host or cells: C3H10T1/2 cells (ATCC CCL-226), transient transfection with pLPCX-SMO-D473H
T2 sequence (Q99835 28-787 D473H): as the sequence (Q99835 28-787) above, with D446H counted along it
Method in brief: as §1

Structure (SMILES) | IC50 [1] | IC50 [2] | IC50 [3]
CSc1cnc(Nc2ccc(C(=O)Nc3cccc(CN4CCOCC4)c3)cc2F)nc1-c1ccc(OC(F)(F)F)cc1 [Compound 44, 3-Fluoro-4-[5-methylsulfanyl-4-(4-trifluoromethoxy-phenyl)-pyrimidin-2-ylamino]-N-(3-morpholin-4-ylmethyl-phenyl)-benzamide] | < 100 nM | < 100 nM | < 100 nM
CSc1cnc(Nc2ccc(C(=O)Nc3cc(CN4CCOCC4)ccc3C)cc2)nc1-c1ccc(C#N)cc1 [Compound 33, 4-[4-(4-Cyano-phenyl)-5-methylsulfanyl-pyrimidin-2-ylamino]-N-(2-methyl-5-morpholin-4-ylmethyl-phenyl)-benzamide] | < 100 nM | < 100 nM | 100 to 1000 nM
